A short description of the series: RP, Waters ACQUITY UPLC BEH C8, 100 × 2.1 mm, 1.7 µm, 55 °C, 0.6 mL/min, estimated dead time 0.37 min; A: 50% water + 25% acetonitrile + 25% isopropanol + 0.05% acetic acid + 20 µM phosphoric acid + 5 mM ammonium acetate; B: 50% acetonitrile + 50% isopropanol + 0.05% acetic acid + 5 mM ammonium acetate; gradient (min/%B) 0/1 0.1/1 2/30 11.5/90 12/99.9 12.5/99.9 12.55/65 12.65/30 12.75/1 12.95/1 13.25/1. Particulars: stereoisomer not certain.
As for `CCCCCCCCCCCC=CC(O)C(COP(=O)([O-])OCC[N+](C)(C)C)NC(=O)CCCCCCCCCCCCCCCCCCCCCC` (configuration not stated) [SM(d16:1/23:0)], the LC retention time was 7.57 min. Next, `CCCCCCCCCCCC=CC(O)C(COP(=O)([O-])OCC[N+](C)(C)C)NC(=O)CCCCCCCCCCCCCCCCCCCCCCC` (configuration not stated) [SM(d16:1/24:0)]: 7.9 min; `CCCCCCCCCCCCCCCC(=O)NC(COP(=O)([O-])OCC[N+](C)(C)C)C(O)CCCCCCCCCCCCCCC` (configuration not stated) [SM(d18:0/16:0)]: 5.94 min; `CCCCCCCCCCCCCC=CC(O)C(COP(=O)([O-])OCC[N+](C)(C)C)NC(=O)CCCCCCCCCCCCCCC` (configuration not stated) [SM(d18:1/16:0)]: 5.68 min. The same measure for `CCCCCCCCCCCCCC=CC(O)C(COP(=O)([O-])OCC[N+](C)(C)C)NC(=O)CCCCCCCCCCCCCCCCC` (configuration not stated) [SM(d18:1/18:0)]: 6.41 min; for `CCCCCCCCCCCCCC=CC(O)C(COP(=O)([O-])OCC[N+](C)(C)C)NC(=O)CCCCCCCCCCCCCCCCCCC` (configuration not stated) [SM(d18:1/20:0)]: 7.12 min; for `CCCCCCCCCCCCCC=CC(O)C(COP(=O)([O-])OCC[N+](C)(C)C)NC(=O)CCCCCCCCCCCCCCCCCCCCC` (configuration not stated) [SM(d18:1/22:0)]: 7.79 min. For `CCCCCCCCCCCCCC=CC(O)C(COP(=O)([O-])OCC[N+](C)(C)C)NC(=O)CCCCCCCCCCCCCCCCCCCCCC` (configuration not stated) [SM(d18:1/23:0)], the LC retention time is 8.1 min.

With `CCCCCCCCCCCCCC=CC(O)C(COP(=O)([O-])OCC[N+](C)(C)C)NC(=O)CCCCCCCCCCCCCCCCCCCCCCC` (configuration not stated) [SM(d18:1/24:0)], the LC retention time was 8.4 min. The same measure for `CCCCCCCCCCCCCCC=CC(O)C(COP(=O)([O-])OCC[N+](C)(C)C)NC(=O)CCCCCCCCCCCCCCC` (configuration not stated) [SM(d19:1/16:0)]: 5.95 min; for `CCCCCCCCCCCCCCC=CC(O)C(COP(=O)([O-])OCC[N+](C)(C)C)NC(=O)CCCCCCCCCCCCCCCCC` (configuration not stated) [SM(d19:1/18:0)]: 6.66 min; for `CCCCCCCCCCCCCC=CC(O)C(N)COP(=O)(O)O` (configuration not stated) [Sphingosine-1-phosphate]: 1.52 min.

`CCCCCCCCCCCCCCCCCC(=O)OC(CC(=O)[O-])C[N+](C)(C)C` (configuration not stated) [Stearoylcarnitine CAR(18:0)]: the LC retention time is 2.3 min. The same measure for `CCCCCCCCCCCCCCCCCCCCCCCC(=O)OC(CC(=O)[O-])C[N+](C)(C)C` (configuration not stated) [Tetracosanoylcarnitine CAR(24:0)]: 4.34 min; for `CCCCCCCCCCCCCC(=O)OC(CC(=O)[O-])C[N+](C)(C)C` (configuration not stated) [Tetradecanoylcarnitine CAR(14:0)]: 1.26 min. The same measure for `CC(C=CC=C(C)C=CC1=C(C)CC(O)CC1(C)C)=CC=CC=C(C)C=CC=C(C)C=CC1=C(C)CC(O)CC1(C)C` (configuration not stated) [Zeaxanthin]: 3.6 min; for `CC(C)=CCCC(C)=CCCC(C)=CC=CC(C)=CC=CC=C(C)C=CC=C(C)CCC=C(C)CCC=C(C)C` [Zeta-carotene]: 8.28 min.

The record behind these values is the RepoRT retention time repository.
